Values after ≈ are worked out from the molar mass of the structure shown.
How the values were obtained:
[1] = tested on: P-388 (mouse DBA/2 lymphoid neoplasm); test: General anti-tumour assay, P-388; assay type: cell-based
Description: (§1) With compounds AH-3, AH-4 and AH-5, four general anti-tumour assays and two cytotoxicity assays were performed. Current screening protocols were employed using test substance diluted as above and at varying concentrations. Tests were performed against the tumour cells P-388 (mouse DBA/2 lymphoid neoplasm), A-549 (human lung carcinoma), HT-29 (human colon carcinoma) and MCF-7 (human breast carcinoma) and for the cytotoxicity assays against CV-1 (monkey kidney fibroblast) and BHK (Hamster kidney fibroblast).
(§2) Scoring is performed as follows: (-) no activity - the number of cells is equal to the control of growth, 0-40% cell inhibition (+) low activity - numbers of cells are reduced by approx 50-60% (++) good activity - numbers of cells are reduced by approx 70-90% (+++) very good activity - there is 100% cell inhibition [(+) is the approximate IC₅₀]

[2] = tested on: A-549 (human lung carcinoma); test: General anti-tumour assay, A-549; assay type: cell-based
Description: as §1, §2

[3] = tested on: HT-29 (human colon carcinoma); test: General anti-tumour assay, HT-29; assay type: cell-based
Description: as §1, §2

[4] = tested on: MCF-7 (human breast carcinoma); test: General anti-tumour assay, MCF-7; assay type: cell-based
Description: as §1, §2

[5] = tested on: CV-1 (monkey kidney fibroblast); test: Cytotoxicity assay, CV-1; assay type: cell-based
Description: as §1, §2

[6] = tested on: BHK (Hamster kidney fibroblast); test: Cytotoxicity assay, BHK; assay type: cell-based
Description: as §1, §2

[7] = tested on: HSV-1 (herpes simplex virus, type 1); test: General anti-viral assay, HSV-1 in CV-1 cells (plaque reduction); assay type: cell-based; details: Human alphaherpesvirus 1, CV-1, read-out: IC50 µg/ml approx
[8] = tested on: VSV (Vesicular Stomatitis Virus); test: microbe, parasite or virus in culture; assay type: cell-based; details: BHK, read-out: IC50 µg/ml approx
[9] = tested on: BHK cells

Compound: CC(C)=CC(=O)CC(C)C1CCC(C)c2c1cc(C)c1c2OCO1 (stereo not drawn) [AH-3, Helioporin C]
- IC50 ([1]; Mus musculus, P388, P-388, read-out: IC50 µg/ml approx): ~1 µg/mL (≈ 3.04 µM)
- activity (cell inhibition) ([1]; P-388, TEST CONC (µg) 0.2): - ((-) no activity - the number of cells is equal to the control of growth, 0-40% cell inhibition)
- activity (cell inhibition) ([1]; P-388, TEST CONC (µg) 0.5): - ((-) no activity - the number of cells is equal to the control of growth, 0-40% cell inhibition)
- activity (cell inhibition) ([1]; P-388, TEST CONC (µg) 1): + ((+) low activity - numbers of cells are reduced by approx 50-60%)
- activity (cell inhibition) ([1]; P-388, TEST CONC (µg) 2): ++ ((++) good activity - numbers of cells are reduced by approx 70-90%)
- activity (cell inhibition) ([1]; P-388, TEST CONC (µg) 5): +++ ((+++) very good activity - there is 100% cell inhibition)
- activity (cell inhibition) ([1]; P-388, TEST CONC (µg) 10): +++ ((+++) very good activity - there is 100% cell inhibition)
- activity (cell inhibition) ([1]; P-388, TEST CONC (µg) 20): +++ ((+++) very good activity - there is 100% cell inhibition)
- activity (cell inhibition) ([2]; A-549, TEST CONC (µg) 0.2): - ((-) no activity - the number of cells is equal to the control of growth, 0-40% cell inhibition)
- activity (cell inhibition) ([2]; A-549, TEST CONC (µg) 0.5): - ((-) no activity - the number of cells is equal to the control of growth, 0-40% cell inhibition)
- activity (cell inhibition) ([2]; A-549, TEST CONC (µg) 1): - ((-) no activity - the number of cells is equal to the control of growth, 0-40% cell inhibition)
- activity (cell inhibition) ([2]; A-549, TEST CONC (µg) 2): - ((-) no activity - the number of cells is equal to the control of growth, 0-40% cell inhibition)
- activity (cell inhibition) ([2]; A-549, TEST CONC (µg) 5): + ((+) low activity - numbers of cells are reduced by approx 50-60%)
- activity (cell inhibition) ([2]; A-549, TEST CONC (µg) 10): +++ ((+++) very good activity - there is 100% cell inhibition)
- activity (cell inhibition) ([2]; A-549, TEST CONC (µg) 20): +++ ((+++) very good activity - there is 100% cell inhibition)
- IC50 ([2]; Homo sapiens, A549, A-549, read-out: IC50 µg/ml approx): ~5 µg/mL (≈ 15.2 µM)
- activity (cell inhibition) ([3]; HT-29, TEST CONC (µg) 0.2): - ((-) no activity - the number of cells is equal to the control of growth, 0-40% cell inhibition)
- activity (cell inhibition) ([3]; HT-29, TEST CONC (µg) 0.5): - ((-) no activity - the number of cells is equal to the control of growth, 0-40% cell inhibition)
- activity (cell inhibition) ([3]; HT-29, TEST CONC (µg) 1): - ((-) no activity - the number of cells is equal to the control of growth, 0-40% cell inhibition)
- activity (cell inhibition) ([3]; HT-29, TEST CONC (µg) 2): + ((+) low activity - numbers of cells are reduced by approx 50-60%)
- activity (cell inhibition) ([3]; HT-29, TEST CONC (µg) 5): ++ ((++) good activity - numbers of cells are reduced by approx 70-90%)
- activity (cell inhibition) ([3]; HT-29, TEST CONC (µg) 10): +++ ((+++) very good activity - there is 100% cell inhibition)
- activity (cell inhibition) ([3]; HT-29, TEST CONC (µg) 20): +++ ((+++) very good activity - there is 100% cell inhibition)
- IC50 ([3]; Homo sapiens, HT-29, read-out: IC50 µg/ml approx): ~2 µg/mL (≈ 6.09 µM)
- IC50 ([4]; Homo sapiens, MCF7, MCF-7, read-out: IC50 µg/ml approx): ~5 µg/mL (≈ 15.2 µM)
- activity (cell inhibition) ([4]; MCF-7, TEST CONC (µg) 0.2): - ((-) no activity - the number of cells is equal to the control of growth, 0-40% cell inhibition)
- activity (cell inhibition) ([4]; MCF-7, TEST CONC (µg) 0.5): - ((-) no activity - the number of cells is equal to the control of growth, 0-40% cell inhibition)
- activity (cell inhibition) ([4]; MCF-7, TEST CONC (µg) 1): - ((-) no activity - the number of cells is equal to the control of growth, 0-40% cell inhibition)
- activity (cell inhibition) ([4]; MCF-7, TEST CONC (µg) 2): - ((-) no activity - the number of cells is equal to the control of growth, 0-40% cell inhibition)
- activity (cell inhibition) ([4]; MCF-7, TEST CONC (µg) 5): + ((+) low activity - numbers of cells are reduced by approx 50-60%)
- activity (cell inhibition) ([4]; MCF-7, TEST CONC (µg) 10): ++ ((++) good activity - numbers of cells are reduced by approx 70-90%)
- activity (cell inhibition) ([4]; MCF-7, TEST CONC (µg) 20): +++ ((+++) very good activity - there is 100% cell inhibition)
- activity (cell inhibition) ([5]; CV-1, TEST CONC (µg) 0.2): - ((-) no activity - the number of cells is equal to the control of growth, 0-40% cell inhibition)
- activity (cell inhibition) ([5]; CV-1, TEST CONC (µg) 0.5): - ((-) no activity - the number of cells is equal to the control of growth, 0-40% cell inhibition)
- activity (cell inhibition) ([5]; CV-1, TEST CONC (µg) 1): - ((-) no activity - the number of cells is equal to the control of growth, 0-40% cell inhibition)
- activity (cell inhibition) ([5]; CV-1, TEST CONC (µg) 2): - ((-) no activity - the number of cells is equal to the control of growth, 0-40% cell inhibition)
- activity (cell inhibition) ([5]; CV-1, TEST CONC (µg) 5): - ((-) no activity - the number of cells is equal to the control of growth, 0-40% cell inhibition)
- activity (cell inhibition) ([5]; CV-1, TEST CONC (µg) 10): ++ ((++) good activity - numbers of cells are reduced by approx 70-90%)
- activity (cell inhibition) ([5]; CV-1, TEST CONC (µg) 20): +++ ((+++) very good activity - there is 100% cell inhibition)
- IC50 ([5]; Primates, CV-1, read-out: IC50 µg/ml approx): 5 to 10 µg/mL (≈ 15.2 to 30.4 µM)
- IC50 ([6]; Mesocricetus auratus, read-out: IC50 µg/ml approx): ~1 µg/mL (≈ 3.04 µM)
- activity (cell inhibition) ([6]; TEST CONC (µg) 0.2): - ((-) no activity - the number of cells is equal to the control of growth, 0-40% cell inhibition)
- activity (cell inhibition) ([6]; TEST CONC (µg) 0.5): - ((-) no activity - the number of cells is equal to the control of growth, 0-40% cell inhibition)
- activity (cell inhibition) ([6]; TEST CONC (µg) 1): + ((+) low activity - numbers of cells are reduced by approx 50-60%)
- activity (cell inhibition) ([6]; TEST CONC (µg) 2): +++ ((+++) very good activity - there is 100% cell inhibition)
- activity (cell inhibition) ([6]; TEST CONC (µg) 5): +++ ((+++) very good activity - there is 100% cell inhibition)
- activity (cell inhibition) ([6]; TEST CONC (µg) 10): +++ ((+++) very good activity - there is 100% cell inhibition)
- activity (cell inhibition) ([6]; TEST CONC (µg) 20): +++ ((+++) very good activity - there is 100% cell inhibition)
- IC50 [7]: ~40 µg/mL (≈ 122 µM)
- IC50 [8]: > 40 µg/mL
- cytotoxicity (inhibition zone on the cell sheet) [9]: 0-
